Laboratory results as given in patent US20260317344A1, “EGFR INHIBITORS FOR TREATING DISEASE” (BLOSSOMHILL THERAPEUTICS, INC., priority 2023, published 2026).

Assays:
[1] = system: BaF3 cells with engineered EGFR L858R/C797S; assay: 3-Day CellTiter Glo (CTG) cell proliferation assay, BaF3 EGFR L858R/C797S; type: cell-based; settings: Mus musculus, 3-day CTG proliferation, 72 hours
Protocol: (§1) 3-DAY CellTiter Glo (CTG) Cell Proliferation Assays (BaF3 Cell Lines)
(§2) Cell proliferation assays were carried out in BaF3 cells engineered with EGFR mutations. BaF3 cells with engineered EGFR L858R/T790M/C797S, EGFR L858R/C797S, or EGFR d746-750/T790M transgene, one thousand cells/50 μL per well were seeded in white 384-well plate, followed by treatment with indicated compounds in a 9-dose dilution series using TECAN d300e liquid dispenser. Cells were incubated with compounds for 72 hours at 37° C. and 5% CO2. Cell proliferation was measured using CellTiter-Gbo 2.0 luciferase-based ATP detection assay (Promega, Madison, WI) at 18 μL per well following the manufacturer's protocol. Plates were then read on a TECAN Sparks multimode microplate reader. Data was analyzed using GraphPad Prism 9 (GraphiPad Software, San Diego, CA) to obtain IC50 values.

[2] = target: T1, pEGFR, PC-9 cells (d746-750 EGFR) (Homo sapiens, UniProt P00533, DEL746-750); assay: Cellular EGFR phosphorylation assay (LANCE Ultra TR-FRET) in PC-9 cells; type: cell-based; settings: 4 hours at 37° C., read-out: PC-9 pEGFR IC50
T1 construct: pEGFR (Tyr1068) TR-FRET
Protocol: (§3) Cellular EGFR Phosphorylation Assays
(§4) EGFR phosphorylation assays were conducted in NSCLC cells with EGFR activation mutations. PC-9 cells (purchased from Aldrich-Sigma) carry a Glu746-Ala750 deletion (d746-750) mutation in exon 19 of the EGFR gene and NCI-H1975 cells (purchased from ATCC) carry both L858R activation mutation and T790M gatekeeper mutation in the EGFR gene. A431 cells (purchased from ATCC) with amplification of wildtype EGFR, derived from epidermoid carcinoma, were used to measure the activity against wildtype EGFR. All cells were seeded in 96-well plates. For PC-9 and NCI-H1975 cells, 50 thousand cells were seeded per well. For A431 cells, 30 thousand cells were seeded per well. The next day, cells were exposed to compound for 4 hours at 37° C. and 5% CO2. Compounds were diluted in DMSO and added to cells in a 9-dose, 3-fold dilution, titration curve using TECAN d300e liquid dispenser. For A431 cells, 40 ng/mL of EGF was added to the media for the final 10 minutes of incubation. EGFR phosphorylation was measured using phospho-EGFR (Try1068) LANCE Ultra TR-FRET Detection Kit (TRF4015M) from PerkinElmer according to manufacturer's instructions. In brief, cells were lysed with 40 μL of lysis buffer plus 1× Halt protease and phosphatase inhibitor cocktail (Thermo 78441) and by incubation at room temperature for 1 h on a microplate shaker (350 rpm). 15 μ L of cell lysate was transferred to 384-well white plate and 5 μL of Europium- and ULight-labeled antibodies diluted in 1× detection buffer was added to each well. After 4-6 hours of incubation at room temperature, plates were then read on a TECAN Sparks multimode microplate reader. Data was analyzed using GraphPad Prism 9 (GraphPad Software, San Diego, CA) to obtain IC50 values.

EGFR (D770_N771insNPG) = EGFR (D770_N771insNPG) (Homo sapiens, UniProt P00533, INS770NPG); assay: HotSpot radiometric kinase assay, inhibition of EGFR (D770_N771insNPG) mutant; type: biochemical; settings: 33P ATP, room temperature, 120 m
Protocol: (§5) Biochemical Assays for inhibition of wild-type and mutant EGFRs
(§6) Briefly, specific kinase/substrate pairs along with required cofactors were prepared in reaction buffer; 20 mM HEPES pH 7.5, 10 mM […], 1 mM EGTA, 0.02% Brij35, 0.02 mg/ml BSA, 0.1 mM Na3VO4, 2 mM DTT, 1% DMSO. Compounds were delivered into the reaction, followed ~20 minutes later by addition of a mixture of ATP (Sigma, St. Louis MO) and ^33P ATP (Perkin Elmer, Waltham MA) to a final concentration of […]. Reactions were carried out at room temperature for 120 m, followed by spotting of the reactions onto P81 ion exchange filter paper (Whatman Inc., Piscataway, NJ). Unbound phosphate was removed by extensive washing of filters in 0.75% phosphoric acid. […] IC50 values and curve fits were obtained using Prism (GraphPad Software).

HCC827 cells = assay: 5-Day CellTiter Glo (CTG) cell proliferation assay, HCC827; type: cell-based; settings: Homo sapiens; HCC827 cells (d746-750 EGFR), 5-day CTG proliferation, 120 hours; read-out: HCC827 IC50
Summary of the method: (§7)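 Luminescent ATP signal (CellTiter-Glo 2.0) after 120 hours of compound exposure gave IC50 values. PC-9 and HCC827 harbour EGFR d746-750; NCI-H1975 harbours L858R/T790M.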

NCI-H1975 cells = assay: 5-Day CellTiter Glo (CTG) cell proliferation assay, NCI-H1975; type: cell-based; settings: Homo sapiens; NCI-H1975 cells (L858R/T790M EGFR), 5-day CTG proliferation, 120 hours; read-out: H1975 IC50
Summary of the method: as §7

[3] = target: T2, pEGFR, NCI-H1975 cells (L858R/T790M EGFR) (Homo sapiens, UniProt P00533, L858R/T790M); assay: Cellular EGFR phosphorylation assay (LANCE Ultra TR-FRET) in NCI-H1975 cells; type: cell-based; settings: 4 hours at 37° C., read-out: H1975 pEGFR IC50
T2 construct: pEGFR (Tyr1068) TR-FRET
Protocol: as §3, §4

[4] = target: T3, pEGFR, A431 cells (wildtype EGFR) (Homo sapiens, UniProt P00533); assay: Cellular EGFR phosphorylation assay (LANCE Ultra TR-FRET) in A431 cells; type: cell-based; settings: 4 hours at 37° C., 40 ng/mL EGF for the final 10 minutes, read-out: A431 pEGFR IC50
T3 construct: pEGFR (Tyr1068) TR-FRET
Protocol: as §3, §4

PC-9 cells = assay: 5-Day CellTiter Glo (CTG) cell proliferation assay, PC-9; type: cell-based; settings: Homo sapiens; PC-9 cells (d746-750 EGFR), 5-day CTG proliferation, 120 hours; read-out: PC-9 IC50
Summary of the method: as §7

EGFR (D746-750) = EGFR (D746-750) (Homo sapiens, UniProt P00533, DEL746-750); assay: HotSpot radiometric kinase assay, inhibition of EGFR 746-750 mutant; type: biochemical; settings: 33P ATP, room temperature, 120 m
Protocol: as §5, §6

EGFR (D746-750/C797S) = EGFR (D746-750/C797S) (Homo sapiens, UniProt P00533, C797S/DEL746-750); assay: HotSpot radiometric kinase assay, inhibition of EGFR 746-750/C797S mutant; type: biochemical; settings: 33P ATP, room temperature, 120 m
Protocol: as §5, §6

EGFR (L858R/T790M/C797S) = EGFR (L858R/T790M/C797S) (Homo sapiens, UniProt P00533, C797S/L858R/T790M); assay: HotSpot radiometric kinase assay, inhibition of EGFR L858R/T790M/C797S mutant; type: biochemical; settings: 33P ATP, room temperature, 120 m
Protocol: as §5, §6

[5] = system: BaF3 cells with engineered EGFR L858R/T790M/C797S; assay: 3-Day CellTiter Glo (CTG) cell proliferation assay, BaF3 EGFR L858R/T790M/C797S; type: cell-based; settings: Mus musculus, 3-day CTG proliferation, 72 hours
Protocol: as §1, §2

[6] = system: BaF3 cells with engineered EGFR d746-750/T790M; assay: 3-Day CellTiter Glo (CTG) cell proliferation assay, BaF3 EGFR d746-750/T790M; type: cell-based; settings: Mus musculus; BaF3 EGFR d746-750/T790M cells, 3-day CTG proliferation, 72 hours
Protocol: as §1, §2

EGFR (L858R/T790M/C797S), sequence (P00533 25-1210 T790M/C797S/L858R): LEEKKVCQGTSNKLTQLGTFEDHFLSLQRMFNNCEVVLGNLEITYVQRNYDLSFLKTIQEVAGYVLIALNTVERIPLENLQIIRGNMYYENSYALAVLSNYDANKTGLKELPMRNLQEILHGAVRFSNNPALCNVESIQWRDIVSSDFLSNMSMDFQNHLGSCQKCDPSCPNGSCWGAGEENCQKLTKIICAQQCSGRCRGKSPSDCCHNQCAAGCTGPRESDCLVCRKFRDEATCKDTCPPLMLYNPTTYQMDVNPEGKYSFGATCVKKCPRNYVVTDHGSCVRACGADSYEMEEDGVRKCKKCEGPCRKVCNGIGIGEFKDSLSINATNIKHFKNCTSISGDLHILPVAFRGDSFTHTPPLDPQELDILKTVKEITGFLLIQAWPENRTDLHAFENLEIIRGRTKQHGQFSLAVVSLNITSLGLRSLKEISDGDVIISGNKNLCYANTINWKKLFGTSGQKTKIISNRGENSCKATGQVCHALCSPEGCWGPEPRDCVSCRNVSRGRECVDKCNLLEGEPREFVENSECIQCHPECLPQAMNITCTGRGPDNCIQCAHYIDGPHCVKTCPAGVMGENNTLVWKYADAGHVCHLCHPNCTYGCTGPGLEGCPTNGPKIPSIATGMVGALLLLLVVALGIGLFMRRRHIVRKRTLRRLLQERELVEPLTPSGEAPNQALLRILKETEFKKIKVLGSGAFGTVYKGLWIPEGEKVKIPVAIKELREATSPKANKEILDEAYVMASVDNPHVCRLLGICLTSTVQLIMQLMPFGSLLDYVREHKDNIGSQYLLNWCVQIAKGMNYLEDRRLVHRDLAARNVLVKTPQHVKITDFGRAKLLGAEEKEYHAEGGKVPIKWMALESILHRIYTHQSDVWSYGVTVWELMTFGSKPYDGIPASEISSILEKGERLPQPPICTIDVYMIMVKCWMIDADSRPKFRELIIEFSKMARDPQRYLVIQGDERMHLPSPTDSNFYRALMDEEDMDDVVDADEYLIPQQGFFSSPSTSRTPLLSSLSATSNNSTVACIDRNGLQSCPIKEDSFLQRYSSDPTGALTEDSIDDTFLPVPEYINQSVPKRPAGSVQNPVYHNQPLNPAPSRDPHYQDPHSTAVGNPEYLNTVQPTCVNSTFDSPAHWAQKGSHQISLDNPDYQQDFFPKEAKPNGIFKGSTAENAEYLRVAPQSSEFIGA
T1 sequence (P00533 with tags, fused parts or gaps DEL746-750): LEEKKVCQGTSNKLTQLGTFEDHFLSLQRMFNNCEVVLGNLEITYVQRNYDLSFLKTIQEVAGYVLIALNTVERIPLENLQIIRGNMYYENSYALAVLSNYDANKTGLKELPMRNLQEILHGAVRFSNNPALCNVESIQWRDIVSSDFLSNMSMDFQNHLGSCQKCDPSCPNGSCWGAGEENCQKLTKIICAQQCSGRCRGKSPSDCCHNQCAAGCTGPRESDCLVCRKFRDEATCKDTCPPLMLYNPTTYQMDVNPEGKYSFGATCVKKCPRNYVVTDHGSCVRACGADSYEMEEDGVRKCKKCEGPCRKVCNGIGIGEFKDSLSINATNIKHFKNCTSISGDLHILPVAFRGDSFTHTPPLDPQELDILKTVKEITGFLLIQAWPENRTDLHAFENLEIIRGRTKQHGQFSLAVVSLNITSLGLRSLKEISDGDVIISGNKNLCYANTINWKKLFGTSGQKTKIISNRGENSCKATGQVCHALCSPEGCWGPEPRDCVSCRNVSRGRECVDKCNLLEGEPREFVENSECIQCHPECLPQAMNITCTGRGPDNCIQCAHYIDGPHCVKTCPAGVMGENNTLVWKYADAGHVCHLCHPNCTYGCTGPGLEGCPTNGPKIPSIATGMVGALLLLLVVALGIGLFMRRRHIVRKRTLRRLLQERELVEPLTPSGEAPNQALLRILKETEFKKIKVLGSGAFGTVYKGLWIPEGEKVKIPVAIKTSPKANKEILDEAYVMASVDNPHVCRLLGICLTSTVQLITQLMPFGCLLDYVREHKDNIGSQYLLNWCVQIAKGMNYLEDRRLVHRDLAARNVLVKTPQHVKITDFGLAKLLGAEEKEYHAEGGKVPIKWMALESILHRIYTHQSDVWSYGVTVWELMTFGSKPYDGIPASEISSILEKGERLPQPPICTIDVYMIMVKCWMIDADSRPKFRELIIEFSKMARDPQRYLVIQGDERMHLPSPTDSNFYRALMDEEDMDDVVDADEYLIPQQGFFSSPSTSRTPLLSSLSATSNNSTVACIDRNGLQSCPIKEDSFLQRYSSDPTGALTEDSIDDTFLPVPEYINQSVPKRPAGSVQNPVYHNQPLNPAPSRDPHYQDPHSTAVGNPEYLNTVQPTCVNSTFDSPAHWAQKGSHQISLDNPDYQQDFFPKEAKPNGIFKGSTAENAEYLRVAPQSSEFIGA
EGFR (D746-750), sequence (P00533 with tags, fused parts or gaps DEL746-750): as above
EGFR (D770_N771insNPG), sequence (P00533 with tags, fused parts or gaps INS770NPG limits assumed): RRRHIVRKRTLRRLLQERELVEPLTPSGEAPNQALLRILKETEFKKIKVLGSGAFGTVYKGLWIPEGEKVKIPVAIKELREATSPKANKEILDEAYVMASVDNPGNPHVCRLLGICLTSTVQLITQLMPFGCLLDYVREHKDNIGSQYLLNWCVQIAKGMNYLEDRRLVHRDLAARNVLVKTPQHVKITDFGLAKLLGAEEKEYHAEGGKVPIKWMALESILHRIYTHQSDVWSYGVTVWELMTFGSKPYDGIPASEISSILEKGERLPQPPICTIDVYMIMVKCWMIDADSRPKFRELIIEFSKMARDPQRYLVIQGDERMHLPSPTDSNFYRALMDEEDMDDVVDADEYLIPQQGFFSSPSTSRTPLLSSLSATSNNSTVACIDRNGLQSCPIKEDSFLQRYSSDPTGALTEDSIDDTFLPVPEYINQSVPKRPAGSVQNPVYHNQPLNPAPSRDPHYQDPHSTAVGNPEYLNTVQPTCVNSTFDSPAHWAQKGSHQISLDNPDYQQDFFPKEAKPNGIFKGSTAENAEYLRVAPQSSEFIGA

| Structure (SMILES) | IC50 [1] [nM] | IC50 [2] [nM] | IC50 (EGFR (D770_N771insNPG)) [nM] | IC50 (HCC827 cells) [nM] | IC50 (NCI-H1975 cells) [nM] | IC50 [3] [nM] | IC50 [4] [nM] | IC50 (PC-9 cells) [nM] | IC50 (EGFR (D746-750)) [nM] | IC50 (EGFR (D746-750/C797S)) [nM] | IC50 (EGFR (L858R/T790M/C797S)) [nM] | IC50 [5] [nM] | IC50 [6] [nM] |
| --- | --- | --- | --- | --- | --- | --- | --- | --- | --- | --- | --- | --- | --- |
| Cc1nn(C)c2c1-c1cc3c(n[nH]c3cn1)/C=C/c1c(OCC#N)nn(CCO)c1CN(C)[C@@H](C)CO2 [Ex. 31] | 3.72 | 65.1 | 2.23 | 11.6 | 358 | 41.6 | 119 | 226 | 0.27 | 0.78 | 0.29 | 25.9 | – |
| CC(C)Oc1nn(CCO)c2c1/C=C/c1n[nH]c3cnc(cc13)-c1cnn(C)c1OC[C@H](C)N(C(C)C)C2 [Ex. 4, 2-[(11S,17E)-8,11-dimethyl-12-(propan-2-yl)-16-[(propan-2-yl)oxy]-2,8,10,11,12,13-hexahydro-14H-5,3-(azenometheno)tripyrazolo[3,4-f:3′,4′-j:4″,3″-n][1,4]oxazacyclopentadecin-14-yl]ethan-1-ol] | 2.6 | 789 | 3.07 | 6.03 | 74.9 | 17.7 | 442 | 115 | 0.59 | 1.44 | 1.36 | 2.81 | – |
| CCc1nn([C@@H](C)CO)c2c1/C=C/c1n[nH]c3cnc(cc13)-c1c(C)nn(C)c1O[C@@H](C)CN(C)C2 [Ex. 61, (2S)-2-[(10S,17E)-16-ethyl-6,8,10,12-tetramethyl-2,8,10,11,12,13-hexahydro-14H-5,3-(azenometheno)tripyrazolo[3,4-f:3′,4′-j:4″,3″-n][1,4]oxazacyclopentadecin-14-yl]propan-1-ol] | – | 1.68 | 0.7 | 0.66 | 74.7 | 2.05 | 21 | 3.55 | 0.43 | 1.05 | 0.91 | – | – |
| CCOc1nn([C@@H](C)CO)c2c1/C=C/c1n[nH]c3cnc(cc13)-c1c(C)nn(C)c1O[C@@H](C)CN(C(C)=O)C2 [Ex. 112, 1-[(10S,17E)-16-ethoxy-14-[(2S)-1-hydroxypropan-2-yl]-6,8,10-trimethyl-2,8,10,11,13,14-hexahydro-12H-5,3-(azenometheno)tripyrazolo[3,4-f:3′,4′-j:4″,3″-n][1,4]oxazacyclopentadecin-12-yl]ethan-1-one] | 29.5 | – | – | – | – | – | – | – | – | – | – | 97.7 | 396 |
| CCOc1nn([C@@H](C)CO)c2c1/C=C/c1n[nH]c3cnc(cc13)-c1c(C)nn(C)c1OC[C@H]1CCCN1C2 [Ex. 65, (2S)-2-[(8aR,19E)-1-ethoxy-11,13-dimethyl-7,8,8a,9,11,17-hexahydro-6H-14,16-(azenometheno)tripyrazolo[3,4-f:3′,4′-j:4″,3″-n]pyrrolo[2,1-c][1,4]oxazacyclopentadecin-3(4H)-yl]propan-1-ol] | – | 1.11 | 0.99 | 0.63 | 5.36 | 1.56 | 15.8 | 1.6 | 0.61 | 1.61 | 1.58 | – | – |
| CCN1Cc2c(c(OCC#N)nn2[C@@H](C)CO)/C=C/c2n[nH]c3cnc(cc23)-c2c(C)nn(C)c2O[C@H](C)C1 [Ex. 58, {[(10R,17E)-12-ethyl-14-[(2S)-1-hydroxypropan-2-yl]-6,8,10-trimethyl-2,10,11,12,13,14-hexahydro-8H-5,3-(azenometheno)tripyrazolo[3,4-f:3′,4′-j:4″,3″-n][1,4]oxazacyclopentadecin-16-yl]oxy}acetonitrile] | – | 1.11 | 0.72 | 0.75 | 14.7 | 2.34 | 21.5 | 2.44 | 0.55 | 1.38 | 1.01 | – | – |
| CCc1nn(CCO)c2c1/C=C/c1n[nH]c3cnc(cc13)-c1c(C)nn(C)c1O[C@@H](C)CN(CC)C2 [Ex. 62, 2-[(10S,17E)-12,16-diethyl-6,8,10-trimethyl-2,8,10,11,12,13-hexahydro-14H-5,3-(azenometheno)tripyrazolo[3,4-f:3′,4′-j:4″,3″-n][1,4]oxazacyclopentadecin-14-yl]ethan-1-ol] | – | 1.13 | 0.42 | 0.44 | 16.9 | 1.54 | 13.2 | 1.08 | 0.42 | 1.58 | 0.74 | – | – |
| CCOc1nn(CCO)c2c1/C=C/c1n[nH]c3cnc(cc13)-c1c(C)nn(C)c1OCCN(C)C2 [Ex. 68, 2-[(17E)-16-ethoxy-6,8,12-trimethyl-2,8,10,11,12,13-hexahydro-14H-5,3-(azenometheno)tripyrazolo[3,4-f:3′,4′-j:4″,3″-n][1,4]oxazacyclopentadecin-14-yl]ethan-1-ol] | – | 6.22 | 0.95 | 2.49 | 227 | 6.39 | 21 | 15.4 | 0.33 | 1.18 | 0.44 | – | – |
| CCc1nn(CCO)c2c1/C=C/c1n[nH]c3cnc(cc13)-c1c(C)nn(C)c1O[C@@H](C)CN(C)C2 [Ex. 60] | – | 2.39 | 0.78 | 1.77 | 57.5 | 2.49 | 29 | 5.05 | 0.54 | 1.72 | 0.86 | – | – |
